Activity calls are given as the source filed them.
Experiments:
Beta-galactosidase = Beta-galactosidase (Escherichia coli, UniProt Q8VNN2); assay: Dose response counterscreen for EBI2 assay utilizing the enzyme, b-galactosidase.; type: functional
[1] = target: T1, Fructose-bisphosphate aldolase (Mycobacterium tuberculosis, UniProt P9WQA3); assay: Fluorescence-based biochemical high throughput dose response assay for inhibitors of the fructose-bisphosphate aldolase (FBA) of M. tuberculosis.; type: functional
T1 sequence (P9WQA3 whole entry): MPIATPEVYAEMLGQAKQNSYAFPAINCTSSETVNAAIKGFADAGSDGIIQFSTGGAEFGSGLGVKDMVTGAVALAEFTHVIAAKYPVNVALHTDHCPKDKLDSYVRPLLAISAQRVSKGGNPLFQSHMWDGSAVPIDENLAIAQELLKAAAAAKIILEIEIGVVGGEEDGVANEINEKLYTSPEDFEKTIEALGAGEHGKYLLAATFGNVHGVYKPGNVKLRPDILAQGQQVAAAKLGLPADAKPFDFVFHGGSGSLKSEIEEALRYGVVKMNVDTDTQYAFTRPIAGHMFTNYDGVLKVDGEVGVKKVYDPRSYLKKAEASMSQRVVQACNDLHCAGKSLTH

[2] = target: T2, Trace amine-associated receptor 1 (Homo sapiens, UniProt Q96RJ0); assay: Fluorescence-based cell-based high throughput dose response assay to identify agonists of the human trace amine associated receptor 1 (TAAR1).; type: functional
T2 sequence (Q96RJ0 whole entry): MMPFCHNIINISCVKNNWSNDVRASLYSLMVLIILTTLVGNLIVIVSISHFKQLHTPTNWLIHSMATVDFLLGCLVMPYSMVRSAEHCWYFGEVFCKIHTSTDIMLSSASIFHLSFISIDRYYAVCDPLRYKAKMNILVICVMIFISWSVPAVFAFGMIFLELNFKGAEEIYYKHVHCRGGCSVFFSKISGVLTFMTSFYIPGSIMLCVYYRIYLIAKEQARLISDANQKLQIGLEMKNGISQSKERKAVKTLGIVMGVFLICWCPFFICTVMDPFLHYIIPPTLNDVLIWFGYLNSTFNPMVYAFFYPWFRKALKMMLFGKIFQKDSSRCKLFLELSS

cells [3] = type: functional, cell-based
cells [4] = type: functional, cell-based; remark: listed apart in the source
[5] = target: Induced myeloid leukemia cell differentiation protein Mcl-1 (Homo sapiens, UniProt Q07820); type: functional
Chain of Induced myeloid leukemia cell differentiation protein Mcl-1 (Q07820 whole entry): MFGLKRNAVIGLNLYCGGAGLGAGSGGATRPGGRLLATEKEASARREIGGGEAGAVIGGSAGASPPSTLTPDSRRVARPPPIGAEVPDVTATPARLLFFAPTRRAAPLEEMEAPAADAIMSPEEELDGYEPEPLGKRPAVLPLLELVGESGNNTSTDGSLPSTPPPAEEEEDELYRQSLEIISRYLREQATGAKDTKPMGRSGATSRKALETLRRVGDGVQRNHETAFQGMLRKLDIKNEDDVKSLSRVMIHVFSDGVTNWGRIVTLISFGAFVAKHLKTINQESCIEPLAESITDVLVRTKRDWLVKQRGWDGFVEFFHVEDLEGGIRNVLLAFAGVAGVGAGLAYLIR

[6] = target: T2, Trace amine-associated receptor 1; assay: Counterscreen for agonists of the human trace amine associated receptor 1 (hTAAR1): Fluorescence-based cell-based high throughput dose response assay to identify hTAAR1 agonist that also desensitize TAAR1 receptor response.; type: functional
Phospholipase A2 = Phospholipase A2 (Homo sapiens, UniProt P04054); type: functional;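 note: confirmatory dose-response counterscreen on phospholipase A2, testing hits that came from an ultra-high-throughput screen for ATG4B inhibitors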
Chain of Phospholipase A2 (P04054 whole entry): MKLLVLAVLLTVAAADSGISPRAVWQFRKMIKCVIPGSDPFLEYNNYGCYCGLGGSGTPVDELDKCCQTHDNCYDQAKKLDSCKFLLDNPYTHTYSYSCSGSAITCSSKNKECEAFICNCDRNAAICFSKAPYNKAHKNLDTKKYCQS

Caspase-3 [7] = target: T3, Caspase-3 (Homo sapiens, UniProt P42574); assay: SAR Analysis of small molecule inhibitors of Sentrin-specific proteases (SENPs) using a Caspase-3 Selectivity assay. [Related pubchem assays (depositor defined):AID2540, AID2599, AID434973, AID489001]; type: functional
T3 sequence (P42574 whole entry): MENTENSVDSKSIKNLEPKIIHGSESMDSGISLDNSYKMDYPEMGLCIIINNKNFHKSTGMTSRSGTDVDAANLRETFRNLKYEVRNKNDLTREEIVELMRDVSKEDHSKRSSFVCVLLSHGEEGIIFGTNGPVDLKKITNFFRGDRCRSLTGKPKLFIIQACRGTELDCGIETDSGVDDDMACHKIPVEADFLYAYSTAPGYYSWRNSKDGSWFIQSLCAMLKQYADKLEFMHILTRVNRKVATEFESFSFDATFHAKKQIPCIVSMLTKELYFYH

[8] = target: T4, Sentrin-specific protease 7 (Homo sapiens, UniProt Q9BQF6); type: functional;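 note: Luminescence-based dose-response confirmation of ultra-high-throughput screening hits, measuring inhibition of SENP7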
T4 sequence (Q9BQF6 whole entry): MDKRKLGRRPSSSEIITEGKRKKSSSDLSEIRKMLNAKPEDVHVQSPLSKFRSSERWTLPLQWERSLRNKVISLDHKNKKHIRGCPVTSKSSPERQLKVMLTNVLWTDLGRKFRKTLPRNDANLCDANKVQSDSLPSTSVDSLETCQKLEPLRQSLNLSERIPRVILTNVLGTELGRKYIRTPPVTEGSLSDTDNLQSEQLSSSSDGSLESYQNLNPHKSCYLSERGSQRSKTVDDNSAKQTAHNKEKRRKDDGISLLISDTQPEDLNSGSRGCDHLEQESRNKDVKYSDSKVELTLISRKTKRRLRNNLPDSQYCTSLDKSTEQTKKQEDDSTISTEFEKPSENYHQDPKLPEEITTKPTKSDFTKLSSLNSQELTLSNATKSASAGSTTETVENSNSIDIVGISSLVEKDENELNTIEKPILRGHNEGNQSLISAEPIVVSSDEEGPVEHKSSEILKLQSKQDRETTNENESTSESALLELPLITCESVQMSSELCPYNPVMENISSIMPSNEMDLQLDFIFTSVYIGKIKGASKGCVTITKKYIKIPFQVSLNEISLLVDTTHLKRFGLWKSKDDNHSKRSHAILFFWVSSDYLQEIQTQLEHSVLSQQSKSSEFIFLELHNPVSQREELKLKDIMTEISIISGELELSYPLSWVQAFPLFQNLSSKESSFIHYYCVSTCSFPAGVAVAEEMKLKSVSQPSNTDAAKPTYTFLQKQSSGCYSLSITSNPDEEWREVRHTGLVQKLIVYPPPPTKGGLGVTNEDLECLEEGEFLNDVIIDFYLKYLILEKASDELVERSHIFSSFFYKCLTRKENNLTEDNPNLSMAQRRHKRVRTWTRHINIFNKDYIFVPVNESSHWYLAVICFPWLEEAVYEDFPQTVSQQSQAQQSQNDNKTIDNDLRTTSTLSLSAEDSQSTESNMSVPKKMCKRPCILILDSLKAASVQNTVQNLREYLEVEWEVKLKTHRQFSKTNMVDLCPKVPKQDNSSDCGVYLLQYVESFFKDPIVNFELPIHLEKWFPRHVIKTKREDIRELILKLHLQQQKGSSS

[9] = target: T5, Sentrin-specific protease 6 (Homo sapiens, UniProt Q9GZR1); assay: SAR Analysis of small molecule inhibitors of Sentrin-specific protease 6 (SENP6) using a Luminescent assay. [Related pubchem assays (depositor defined):AID2582, AID2599]; type: functional
T5 sequence (Q9GZR1 whole entry): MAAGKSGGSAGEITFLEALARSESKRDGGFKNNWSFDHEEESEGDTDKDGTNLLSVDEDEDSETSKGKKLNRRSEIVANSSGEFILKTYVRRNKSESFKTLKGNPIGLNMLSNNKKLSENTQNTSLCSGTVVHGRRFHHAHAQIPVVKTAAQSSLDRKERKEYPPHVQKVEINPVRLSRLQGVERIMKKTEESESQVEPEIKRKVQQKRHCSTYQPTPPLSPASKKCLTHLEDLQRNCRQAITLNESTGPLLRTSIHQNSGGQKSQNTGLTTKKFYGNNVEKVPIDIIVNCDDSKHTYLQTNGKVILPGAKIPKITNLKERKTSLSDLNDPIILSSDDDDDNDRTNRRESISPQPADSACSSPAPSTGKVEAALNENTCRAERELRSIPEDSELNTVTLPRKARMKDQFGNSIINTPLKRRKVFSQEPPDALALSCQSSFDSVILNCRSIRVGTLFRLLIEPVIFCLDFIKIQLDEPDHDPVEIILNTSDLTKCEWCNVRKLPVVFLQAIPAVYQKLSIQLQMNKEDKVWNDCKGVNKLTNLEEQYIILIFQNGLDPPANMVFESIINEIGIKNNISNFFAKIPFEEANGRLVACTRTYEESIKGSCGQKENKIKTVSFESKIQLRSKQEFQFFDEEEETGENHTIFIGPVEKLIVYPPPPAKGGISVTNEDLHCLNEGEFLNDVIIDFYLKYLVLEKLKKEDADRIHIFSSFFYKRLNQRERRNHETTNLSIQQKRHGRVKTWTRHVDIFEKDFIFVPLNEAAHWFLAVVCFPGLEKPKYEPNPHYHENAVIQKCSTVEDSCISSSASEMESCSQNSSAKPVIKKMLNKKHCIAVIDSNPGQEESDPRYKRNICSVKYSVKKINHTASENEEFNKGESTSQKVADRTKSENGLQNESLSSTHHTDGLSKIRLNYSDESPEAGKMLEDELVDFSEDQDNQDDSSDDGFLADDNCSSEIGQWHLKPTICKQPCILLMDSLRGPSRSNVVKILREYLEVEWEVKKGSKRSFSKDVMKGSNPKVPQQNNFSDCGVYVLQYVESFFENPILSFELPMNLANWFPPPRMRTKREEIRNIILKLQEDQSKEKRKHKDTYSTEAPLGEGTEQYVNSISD

[10] = target: T5, Sentrin-specific protease 6; type: functional
[11] = target: T6, Sentrin-specific protease 8 (Homo sapiens, UniProt Q96LD8); assay: SENP8 protease inhibitors, SAR follow-up, biochemical, luminescence (AID 504501); type: functional
T6 sequence (Q96LD8 whole entry): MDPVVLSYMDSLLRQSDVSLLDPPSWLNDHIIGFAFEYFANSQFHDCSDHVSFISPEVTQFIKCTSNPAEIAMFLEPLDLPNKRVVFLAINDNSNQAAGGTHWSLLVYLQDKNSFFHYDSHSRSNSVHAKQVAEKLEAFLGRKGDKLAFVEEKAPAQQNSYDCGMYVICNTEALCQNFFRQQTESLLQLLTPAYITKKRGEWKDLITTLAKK

[12] = target: T6, Sentrin-specific protease 8; type: functional
Caspase-3 [13] = target: T3, Caspase-3; type: functional
[14] = target: T4, Sentrin-specific protease 7; assay: SENP7 protease inhibitors, SAR follow-up, biochemical, luminescence (AID 504497); type: functional
Cysteine protease ATG4B = target: T7, Cysteine protease ATG4B (Homo sapiens, UniProt Q9Y4P1); type: functional;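 note: Fluorescence-based dose-response confirmation assay measuring inhibition of ATG4B activity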
T7 sequence (Q9Y4P1 whole entry): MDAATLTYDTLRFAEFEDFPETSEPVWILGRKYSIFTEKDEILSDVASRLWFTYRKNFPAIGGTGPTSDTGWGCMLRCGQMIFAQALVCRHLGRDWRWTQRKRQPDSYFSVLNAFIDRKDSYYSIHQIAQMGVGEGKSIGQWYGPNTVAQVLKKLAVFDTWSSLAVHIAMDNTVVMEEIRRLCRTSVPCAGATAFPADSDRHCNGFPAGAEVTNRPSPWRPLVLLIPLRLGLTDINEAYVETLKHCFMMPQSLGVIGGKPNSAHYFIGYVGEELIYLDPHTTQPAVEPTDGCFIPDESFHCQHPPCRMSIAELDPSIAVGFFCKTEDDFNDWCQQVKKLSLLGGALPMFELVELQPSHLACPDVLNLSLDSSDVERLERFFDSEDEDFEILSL

[15] = HEp-2 cell cytotoxicity, dose response, cytotoxicity control for RSV inhibitor project, HTS (AID 2410); type: functional; settings: human respiratory syncytial virus
cells [16] = type: functional
[17] = AlphaScreen signal interference compounds, dose response, artefact control for ARNT-TACC3 interaction inhibitor project, biochemical, luminescence, cherry-pick (AID 651705); type: functional;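 note: AlphaScreen bead proximity signal that flags compounds interfering with the detection technology; potency reflects signal decrease which marks the compound as an assay artifact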
Nonstructural protein 1 = Nonstructural protein 1 (Influenza A virus, UniProt Q194T2); type: functional, Influenza A virus (A/California/07/2009(H1N1))
Chain of Nonstructural protein 1 (Q194T2 whole entry): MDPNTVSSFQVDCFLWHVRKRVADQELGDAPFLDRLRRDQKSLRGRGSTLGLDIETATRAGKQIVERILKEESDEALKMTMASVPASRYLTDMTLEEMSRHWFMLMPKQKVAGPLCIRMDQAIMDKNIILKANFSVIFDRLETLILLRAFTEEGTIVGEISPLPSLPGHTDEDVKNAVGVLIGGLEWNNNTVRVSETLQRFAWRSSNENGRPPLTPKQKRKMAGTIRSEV

Chain of Beta-galactosidase (Q8VNN2 whole entry): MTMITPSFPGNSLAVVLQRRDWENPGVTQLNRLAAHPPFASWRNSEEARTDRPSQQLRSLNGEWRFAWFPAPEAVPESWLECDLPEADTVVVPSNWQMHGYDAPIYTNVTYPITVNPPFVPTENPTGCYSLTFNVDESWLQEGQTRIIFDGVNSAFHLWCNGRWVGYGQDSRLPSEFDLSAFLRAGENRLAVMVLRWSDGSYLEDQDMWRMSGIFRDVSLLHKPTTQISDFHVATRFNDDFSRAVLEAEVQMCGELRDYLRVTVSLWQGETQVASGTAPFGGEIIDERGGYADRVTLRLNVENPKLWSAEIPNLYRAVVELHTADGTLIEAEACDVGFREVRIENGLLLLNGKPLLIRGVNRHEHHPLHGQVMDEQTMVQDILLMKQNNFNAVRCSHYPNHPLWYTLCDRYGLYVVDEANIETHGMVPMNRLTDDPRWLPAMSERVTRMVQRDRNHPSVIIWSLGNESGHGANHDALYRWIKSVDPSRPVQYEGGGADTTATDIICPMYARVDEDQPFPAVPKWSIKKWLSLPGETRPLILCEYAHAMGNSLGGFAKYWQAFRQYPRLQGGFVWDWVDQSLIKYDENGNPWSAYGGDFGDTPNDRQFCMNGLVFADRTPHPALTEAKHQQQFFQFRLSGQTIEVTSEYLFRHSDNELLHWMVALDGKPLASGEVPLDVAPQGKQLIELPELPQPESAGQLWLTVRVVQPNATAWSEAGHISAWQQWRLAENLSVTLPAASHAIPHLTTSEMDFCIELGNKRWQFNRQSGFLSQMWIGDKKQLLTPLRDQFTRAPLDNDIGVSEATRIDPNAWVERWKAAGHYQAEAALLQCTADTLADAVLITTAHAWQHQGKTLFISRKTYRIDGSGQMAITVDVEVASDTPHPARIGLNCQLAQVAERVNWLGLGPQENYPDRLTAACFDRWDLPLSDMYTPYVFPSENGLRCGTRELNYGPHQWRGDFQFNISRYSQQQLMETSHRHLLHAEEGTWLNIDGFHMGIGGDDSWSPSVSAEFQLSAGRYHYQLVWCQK

In the case of `N#Cc1c(O)ncc(/C=N/N=C/c2ccccc2)c1Nc1ccccc1`, the IC50 (Beta-galactosidase) was > 80 µM (inactive).

In the case of `CC(Oc1ccc2c(c1)oc(=O)c1ccccc12)C(=O)NCCCN1CCOCC1` (stereo unspecified), the IC50 [1] was 1.5 µM (active).

With `COc1cc(C(c2nnnn2C2CCCC2)N2CCc3ccccc3C2)ccc1O` (stereo unspecified) the EC50 [2] was 496 nM (active), the IC50 (cells [3]) was > 29.9 µM (inactive) and the EC50 (cells [4]) was > 29.9 µM (inactive). The IC50 [5] was 12.8 µM (active) and the IC50 [6] was 1.33 µM (active).

In the case of `CC(C)(C)c1ccc2c(c1)C(=O)c1ccccc1C2=O`, the IC50 (Phospholipase A2) was 6.46 µM (active), the IC50 (Caspase-3 [7]) was 934 nM (active) and the IC50 [8] was > 100 µM (inactive). The IC50 [9] was 927 nM (active), the IC50 [10] was 4.05 µM (active) and the IC50 [11] was 1.12 µM (active). The IC50 [12] was > 100 µM (inactive), the IC50 (Caspase-3 [13]) was > 100 µM (inactive) and the IC50 [14] was 635 nM (active). The IC50 (Cysteine protease ATG4B) was 9.47 µM (active).

With `COc1ccc(C2=NN(C(=O)CSc3cn(C)c4ccccc34)C(c3ccc(OC)cc3)C2)cc1` (stereo unspecified) the IC50 (Beta-galactosidase) was > 80 µM (inactive) and the CC50 [15] was 30.2 µM (active).

With `COc1ccc(C(=O)Nc2nnc(C3=COCCO3)o2)cc1` the IC50 (cells [16]) was 5.45 µM (active) and the AC50 [17] was 107 µM (active).

In the case of `O=C(c1cc2cc(Cl)ccc2[nH]1)N1CCN(c2ccccc2F)CC1`, the IC50 (Beta-galactosidase) was > 80 µM (inactive).

With `O=C(NCCc1ccccc1)c1ccc([N+](=O)[O-])cc1` the EC50 [2] was 2320 nM (active), the IC50 (cells [3]) was > 29.9 µM (inactive) and the EC50 (cells [4]) was > 29.9 µM (inactive). For the same compound, the IC50 [6] was 7.32 µM (active).

For `c1ccc(CNCCN2CCNCC2)nc1`, the AC50 [17] was 121 µM (active) and the IC50 (Nonstructural protein 1) was 7.87 µM (active).

In the case of `Cc1cc(=O)oc2cc(OCC(=O)N3CCCC3)ccc12`, the IC50 [1] was 2.54 µM (active).

With `COc1cc(OC)c(C(=O)OCC(=O)Nc2nnc(-c3ccccc3)o2)cc1OC` the AC50 [17] was 112 µM (active).

For `COc1ccc2cc(C(N)=O)/c(=N/c3ccccc3)oc2c1`, the IC50 [1] was > 10 µM (inactive).

Source: ChEMBL document CHEMBL1201862, “PubChem BioAssay data set” (2004)
